Measurements taken from patent US20100120867A1, “METHOD OF TREATMENT” (Novartis AG, priority 2007, published 2010).

Assay: Multicenter, double-blind, randomized, placebo-controlled clinical study in subjects with frequent heartburn
Format: in vivo, human
Experimental: A multicenter, double-blind, randomized, parallel group, placebo-controlled clinical study is carried out to investigate the safety and efficacy of lansoprazole, 15 mg (or alternatively 30 mg) once daily, in preventing frequent heartburn.
The trial population consists of subjects (male or female, at least 18 years old) with frequent heartburn, i.e. heartburn occurring a minimum of 2 or more days a week over the past month, that was untreated. A total of 576 subjects with frequent heartburn (288 per group) is randomized in order to yield 546 subjects.
The study population is divided equally between a treatment group receiving lansoprazole capsules, 15 mg (or alternatively, 30 mg) and a control group receiving placebo capsules. All statistical tests used to compare the two treatment groups are two-sided, with probability of Type I error=0.05.
Lansoprazole 15 mg (or alternatively, 30 mg) capsules or placebo are taken once daily for 14 days during the double blind treatment period.
Most measures of efficacy are derived from data recorded in the subject's IVRS diary after a daily self-assessment. Subjects are given instructions to complete the IVRS diary in the morning for the previous 24-hour period on a daily basis for all phases of the study. The diary is designed to collect information on the occurrence of daytime and nighttime heartburn episodes, maximum heartburn severity, and rescue medication consumption for the previous 24 hours. In addition, the date and time of study medication consumption are recorded.
To classify heartburn severity, subjects are instructed to use the most intense episode of the 24-hour period according to the following Intensity Scale Definitions (Table 6):
Therefore, the primary evaluation is the period between the first dose (Day 1) through the end of the double blind treatment period, i.e. Days 1-14 for 24-hour days. “No heartburn over 24 hours” on each of Days 1-14 is defined as the combined experience of daytime and nighttime heartburn. […]
This variable is analyzed as the percentage of nighttimes with the outcome of no nighttime heartburn. […]

[1] = 14-day course of therapy, randomized treatment group

In the case of `Cc1c(OCC(F)(F)F)ccnc1C[S+]([O-])c1nc2ccccc2[nH]1` (stereo not drawn) [Lansoprazole], the “efficacy in the relief of frequent heartburn compared to placebo” value (15 mg once daily, 14 days) is reported as “superior in efficacy to placebo”, the “proportion of 24-hour days substantially free of heartburn compared to placebo” value [1] is reported as “statistically significant increase” and the “proportion of nighttimes substantially free of heartburn compared to placebo” value [1] is reported as “statistically significant increase”.
